The values that follow come from patent US9345706B2, “Benzoxazole kinase inhibitors and methods of use” (Intellikine LLC, priority 2008, dated 2016).

The target in one assay is T1, PI3K α (Homo sapiens, UniProt P42336).
T1 construct: purchased Upstate
The assay is described as follows: PI3K α kinase inhibition assay. Format: biochemical.

The subject of the next assay is xenograft tumors. The assay is described as follows: Tumor volume of xenograft tumors in female nude athymic mice. The note with it: U87-MG, A549, ZR-75-1, or 786-0 tumor cells. Format: in vivo, mouse. The procedure: For example, treatment with one or more compounds of the invention results in a reduction in the growth or tumor volume caused by engraftment of U87-MG, A549, ZR-75-1, or 786-0 tumor cells in nude mice. The compounds of the invention may be administered orally, subcutaneously, or intravenously, or any other compound administration methods provided herein. In some cases, the compounds are administered once a week, every other day, once a day, twice a day, three times a day, four times a day or more. In some cases, 0.01 mg/kg of compound is administered, 0.05 mg/kg, 0.1 mg/kg, 0.2 mg/kg, 0.4 mg/kg, 0.5 mg/kg, 1 mg/kg, 1.5 mg/kg, 2 mg/kg, 3 mg/kg, 4 mg/kg, 5 mg/kg, 7.5 mg/kg, 10 mg/kg, 100 mg/kg or more compound is administered at a time. In some cases, a significant reduction in tumor volume may be detected within 5, 10, 15, 20, 25, or 30 days of tumor engraftment.
Mice are inoculated subcutaneously in the right flank with 0.01 to 0.5 ml of tumor cells such as those listed above (approximately 1.0×10^5 to 1.0×10^8 cells/mouse). Five to 10 days following inoculation, tumors are measured using calipers and tumor weight is calculated, for example using the animal study management software, such as Study Director V.1.6.70 (Study Log). […] Body weights are recorded when the mice are pair-matched. […]

Assay [1] has as its system HCT116 cells or SW620 cells. In words: Cell cycle progression, G0/G1 arrest. Format: cell-based. The conditions noted are these: compared to an inhibitor that inhibits one or more PI3-kinases. The procedure:
FIG. 9A-9B depict the effects of a compound of Table 1 of the present invention on cell cycle progression in HCT116 and SW620 cells as compared to various other compounds. FIG. 9A depicts the inhibiting effect of the compound at 500 nM on cell cycle progression as compared to DMSO vehicle control and as compared to 10 uM doxorubicin. FIG. 9B depicts the effect of the indicated compounds on the population of cells residing in G0/G1 phase during culture for two different cell lines.
In some embodiments, one or more compounds of the invention including those in Table 1 may cause cell cycle arrest. […] In some cases, about 35%, 40%, 50%, 55%, 60%, 65%, 70% or more of cells treated with one or more compounds of the invention may be in the G0/G1 cell cycle stage.

T1 sequence (P42336 whole entry): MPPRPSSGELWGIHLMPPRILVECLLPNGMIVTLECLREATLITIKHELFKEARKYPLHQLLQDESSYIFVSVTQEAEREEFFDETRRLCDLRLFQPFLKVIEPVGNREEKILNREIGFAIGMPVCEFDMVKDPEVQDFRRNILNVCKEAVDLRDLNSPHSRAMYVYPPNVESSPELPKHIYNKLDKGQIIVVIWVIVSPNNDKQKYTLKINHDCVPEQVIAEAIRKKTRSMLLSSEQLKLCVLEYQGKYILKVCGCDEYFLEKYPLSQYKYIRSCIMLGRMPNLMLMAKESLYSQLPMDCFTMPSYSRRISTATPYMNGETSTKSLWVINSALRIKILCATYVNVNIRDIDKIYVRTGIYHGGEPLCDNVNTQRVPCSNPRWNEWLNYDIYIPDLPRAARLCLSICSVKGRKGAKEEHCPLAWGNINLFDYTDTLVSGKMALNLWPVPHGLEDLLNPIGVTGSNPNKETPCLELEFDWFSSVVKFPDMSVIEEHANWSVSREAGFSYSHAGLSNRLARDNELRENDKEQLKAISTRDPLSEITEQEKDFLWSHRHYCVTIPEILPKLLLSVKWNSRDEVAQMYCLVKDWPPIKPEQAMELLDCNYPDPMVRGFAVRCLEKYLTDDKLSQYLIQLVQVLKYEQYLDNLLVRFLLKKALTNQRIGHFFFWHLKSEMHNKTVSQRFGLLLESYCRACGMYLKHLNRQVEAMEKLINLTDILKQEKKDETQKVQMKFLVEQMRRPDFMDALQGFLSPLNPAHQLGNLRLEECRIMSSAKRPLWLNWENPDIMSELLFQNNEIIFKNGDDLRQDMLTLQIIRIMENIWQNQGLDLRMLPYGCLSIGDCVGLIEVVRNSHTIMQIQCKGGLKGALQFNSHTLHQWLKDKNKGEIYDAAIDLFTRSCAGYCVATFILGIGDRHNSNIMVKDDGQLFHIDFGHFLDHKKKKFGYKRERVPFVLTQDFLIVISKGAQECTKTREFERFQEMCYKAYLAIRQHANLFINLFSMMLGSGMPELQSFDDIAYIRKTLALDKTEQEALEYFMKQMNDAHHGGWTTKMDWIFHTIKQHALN
T1 sequence (P27986 whole entry partner): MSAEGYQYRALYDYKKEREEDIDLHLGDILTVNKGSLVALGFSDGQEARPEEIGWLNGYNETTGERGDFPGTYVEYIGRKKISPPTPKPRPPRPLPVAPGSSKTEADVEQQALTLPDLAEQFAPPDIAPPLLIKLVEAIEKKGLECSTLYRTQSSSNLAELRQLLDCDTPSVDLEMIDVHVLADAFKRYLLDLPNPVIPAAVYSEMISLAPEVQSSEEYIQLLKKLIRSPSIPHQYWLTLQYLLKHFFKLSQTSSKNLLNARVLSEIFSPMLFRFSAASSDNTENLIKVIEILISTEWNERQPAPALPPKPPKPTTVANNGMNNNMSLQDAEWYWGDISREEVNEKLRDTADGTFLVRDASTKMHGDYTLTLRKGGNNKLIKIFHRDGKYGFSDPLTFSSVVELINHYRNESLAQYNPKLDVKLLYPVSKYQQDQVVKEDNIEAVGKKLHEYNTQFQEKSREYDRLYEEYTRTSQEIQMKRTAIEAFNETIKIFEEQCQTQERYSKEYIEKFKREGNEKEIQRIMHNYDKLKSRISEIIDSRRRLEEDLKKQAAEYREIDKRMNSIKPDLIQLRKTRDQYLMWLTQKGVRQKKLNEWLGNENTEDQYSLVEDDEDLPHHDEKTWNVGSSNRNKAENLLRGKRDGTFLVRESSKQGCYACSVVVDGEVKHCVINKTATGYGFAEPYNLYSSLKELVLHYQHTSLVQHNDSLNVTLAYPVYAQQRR

For orientation: IC50 means the concentration needed to halve the response being measured. On PI3K α, `COC(=O)Nc1noc2cc(-c3nn(C(C)C)c4ncnc(N)c34)ccc12` [compound 20] had an IC50 of under 10 µM.

Consider `COC(=O)Nc1noc2ccc(-c3nn(C(C)C)c4ncnc(N)c34)cc12` [compound 19], for which, on PI3K α, the IC50 is over 10 µM.

As for `CC(C)n1nc(-c2ccc3oc(N)nc3c2)c2c(N)ncnc21` [compound 1], the “tumor volume of xenograft tumors” value with xenograft tumors was “cause a reduction in tumor volume of xenograft tumors”. For the same molecule, the “degree of G0/G1 arrest” value in assay [1] is recorded as “comparable or a greater degree of G0/G1 arrest”.
